The record followed here is patent US10494376B2, “Tetrahydroisoquinoline derived PRMT5-inhibitors” (CTXT PTY LTD, priority 2014, dated 2019).

Test [1] concerns the target Full-length PRMT5 enzyme (NCBI Reference sequence NP_006100.2) co-expressed with His6-MEP50 (Homo sapiens (Human), UniProt O14744). Briefly: Revised PRMT5 Biochemical Assay. Conditions: 1 μM peptide substrate, 1 μM S-Adenosyl methionine, 4 hours at 37 degree Celsius, Transcreener EPIGEN fluorescence polarisation. An outline of the steps: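 Full-length PRMT5 co-expressed with His6-MEP50 in insect cells (15 ng/reaction) was run with 1 μM H4-derived peptide and 1 μM SAM in PBS, 0.01% Tween-20, 0.01% albumin and 1 mM DTT for 4 h at 37 °C. Product was read by Transcreener EPIGEN fluorescence polarisation, and IC50 came from a 4-parameter fit.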
For orientation: Fluorescence polarisation rises when a labelled molecule tumbles more slowly, as on binding a larger partner.

Test [2] has as its system symmetrical dimethylation of arginine (Di-Methyl Histone H4 Arginine 3) in cell line TE11. Nature of the test: Revised PRMT5 Biomarker Assay (Di-Methyl Histone H4 Arginine 3 immunofluorescence). Format: cell-based. Conditions: Homo sapiens, TE-11, TE11 cells, 72 hours. On the procedure: Compounds of the invention may be tested for potency to inhibit symmetrical dimethylation of arginine in the following assay:
The cell line TE11 was seeded at a density of 6,000 cells per well in 96 well optical quality tissue culture plates in DME medium and 10% foetal bovine serum, and allowed to adhere for 5 hours under standard culture conditions (37 degree Celsius, 5% CO2). […] After incubation for 72 hours, the cells were fixed with 3.7% formaldehyde in PBS for 30 minutes at room temperature, washed with phosphate buffer saline and blocked with Odyssey blocking buffer (LI-COR, Lincoln, Nebr.). Rabbit anti-Di-Methyl Histone H4 Arginine 3 specific antibody (Epigentek) in Odyssey blocking buffer was added and incubated for 14 hours at 4 degree Celsius. […] Alternatively, the plates were imaged on a PerkinElmer Phenix high content imaging platform. […] The resulting mean intensity per cell was directly converted to percent inhibition as outlined above (IC50, imager based).

Where [3] appears, read: PerkinElmer Envision fluorescence intensity, corrected for Hoechst 33342, read-out: IC50 - plate-reader based.
The mark [4] stands for this setting: PerkinElmer Phenix high content imaging, mean intensity per cell, read-out: IC50 - image based.

As a reminder, the IC50 is the concentration at which inhibition is half-maximal.

Counter-ions that a name gives are not always drawn. Like-named read-outs stand apart in the source and are kept apart here.

Full-length PRMT5 enzyme (NCBI Reference sequence NP_006100.2) co-expressed with His6-MEP50, sequence (O14744 whole entry): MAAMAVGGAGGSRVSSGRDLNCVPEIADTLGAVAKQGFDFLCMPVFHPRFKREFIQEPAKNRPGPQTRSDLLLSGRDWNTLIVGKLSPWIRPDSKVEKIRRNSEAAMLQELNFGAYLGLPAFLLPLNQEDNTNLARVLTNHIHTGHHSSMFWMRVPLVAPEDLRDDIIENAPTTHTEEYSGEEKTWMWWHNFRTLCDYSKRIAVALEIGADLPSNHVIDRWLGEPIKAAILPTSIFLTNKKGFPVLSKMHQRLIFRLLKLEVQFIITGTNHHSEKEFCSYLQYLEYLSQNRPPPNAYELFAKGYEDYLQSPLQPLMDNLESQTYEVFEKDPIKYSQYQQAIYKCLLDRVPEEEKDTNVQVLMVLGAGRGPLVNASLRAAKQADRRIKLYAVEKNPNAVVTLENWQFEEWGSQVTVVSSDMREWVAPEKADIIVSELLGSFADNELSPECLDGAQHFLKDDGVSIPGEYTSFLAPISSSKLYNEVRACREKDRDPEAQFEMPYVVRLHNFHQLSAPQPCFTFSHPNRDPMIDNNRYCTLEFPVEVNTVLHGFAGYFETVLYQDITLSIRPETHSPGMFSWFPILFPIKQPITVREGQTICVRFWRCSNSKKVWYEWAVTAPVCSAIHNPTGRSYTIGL
Full-length PRMT5 enzyme (NCBI Reference sequence NP_006100.2) co-expressed with His6-MEP50, sequence (Q9BQA1 whole entry partner): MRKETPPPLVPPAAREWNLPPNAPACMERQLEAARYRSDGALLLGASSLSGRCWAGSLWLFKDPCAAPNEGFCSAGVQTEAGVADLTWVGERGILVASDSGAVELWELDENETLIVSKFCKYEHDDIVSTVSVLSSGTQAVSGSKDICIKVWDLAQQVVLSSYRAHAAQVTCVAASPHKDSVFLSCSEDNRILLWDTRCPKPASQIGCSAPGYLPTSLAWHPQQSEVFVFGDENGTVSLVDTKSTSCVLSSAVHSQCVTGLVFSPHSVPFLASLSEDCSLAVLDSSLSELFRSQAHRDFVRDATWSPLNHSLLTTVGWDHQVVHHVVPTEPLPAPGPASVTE

Take `O=C(NC[C@@H](O)[C@@H]1Cc2ccccc2CN1)c1ccccc1` [Example 3, N-((R)-2-Hydroxy-2-((S)-1,2,3,4-tetrahydroisoquinolin-3-yl)ethyl)benzamide]: the IC50 in test [1] worked out at 8360 nM; in test [2] (setting [3]), 1460 nM.

As for `CCOc1ccccc1C(=O)NC[C@@H](O)[C@@H]1Cc2ccccc2CN1` [Example 8, 2-Ethoxy-N-((R)-2-hydroxy-2-((S)-1,2,3,4-tetrahydroisoquinolin-3-yl)ethyl)benzamide], the IC50 came to 16500 nM in test [1] and 2320 nM in test [2] (setting [3]). With `O=C(NC[C@@H](O)[C@@H]1Cc2ccccc2CN1)c1ccc(C(=O)N2CCOCC2)cc1F` [Example 15, 2-Fluoro-N-((R)-2-hydroxy-2-((S)-1,2,3,4-tetrahydroisoquinolin-3-yl)ethyl)-4-(morpholine-4-carbonyl)benzamide], the figures for the IC50 in test [1] and in test [2] (setting [3]) were 383 nM and 23 nM, respectively.

Turning to `O=C(NC[C@@H](O)[C@@H]1Cc2ccccc2CN1)c1ccnc(OC2CCNCC2)c1` [Example 21, N-((R)-2-Hydroxy-2-((S)-1,2,3,4-tetrahydroisoquinolin-3-yl)ethyl)-2-(piperidin-4-yloxy)isonicotinamide], the IC50 in test [1] was 70 nM; in test [2] (setting [3]), 87 nM. Regarding `O=C(NC[C@@H](O)[C@@H]1Cc2ccccc2CN1)c1ccnc(OC2CCOCC2)c1` [Example 26, N-((R)-2-Hydroxy-2-((S)-1,2,3,4-tetrahydroisoquinolin-3-yl)ethyl)-2-((tetrahydro-2H-pyran-4-yl)oxy)isonicotinamide bis(2,2,2-trifluoroacetic acid) salt], the values for the IC50 in test [1], in test [2] (setting [3]) and in test [2] (setting [4]) were 53 nM, 15 nM and 3 nM, respectively. As to `COC(=O)N1CCC(Oc2cc(C(=O)NC[C@@H](O)[C@@H]3Cc4ccccc4CN3)ccn2)CC1` [Example 27, Methyl 4-((4-(((R)-2-hydroxy-2-((S)-1,2,3,4-tetrahydroisoquinolin-3-yl)ethyl)carbamoyl)pyridin-2-yl)oxy)piperidine-1-carboxylate bis(2,2,2-trifluoroacetic acid) salt], the values for the IC50 in test [1] and in test [2] (setting [3]) were 44 nM and 7 nM, respectively. The matching figures for `O=C(NC[C@@H](O)[C@@H]1Cc2ccccc2CN1)c1ccc(C(=O)N2CCOCC2)cc1` [Example 28, N-((R)-2-Hydroxy-2-((S)-1,2,3,4-tetrahydroisoquinolin-3-yl)ethyl)-4-(morpholine-4-carbonyl)benzamide hydrochloride]: 180 nM and 12 nM. The like results for `O=C(NC[C@@H](O)[C@@H]1Cc2ccccc2CN1)c1ccc(C(=O)N2CCS(=O)(=O)CC2)cc1` [Example 37, 4-(1,1-Dioxidothiomorpholine-4-carbonyl)-N-((R)-2-hydroxy-2-((S)-1,2,3,4-tetrahydroisoquinolin-3-yl)ethyl)benzamide] were, in that order, 105 nM and 254 nM. As for `O=C(NC[C@@H](O)[C@@H]1Cc2ccccc2CN1)c1ccc(C(=O)N2C3CCC2COC3)cc1` [Example 49, 4-(3-Oxa-8-azabicyclo[3.2.1]octane-8-carbonyl)-N—((R)-2-hydroxy-2-((S)-1,2,3,4-tetrahydroisoquinolin-3-yl)ethyl)benzamide hydrochloride], the IC50 in test [1] came to 38 nM; in test [2] (setting [3]), 6 nM; in test [2] (setting [4]), 1 nM. The matching figures for `CCOc1cc(C(=O)N2C3CCC2COC3)ccc1C(=O)NC[C@@H](O)[C@@H]1Cc2ccccc2CN1` [Example 50, 4-(3-Oxa-8-azabicyclo[3.2.1]octane-8-carbonyl)-2-ethoxy-N—((R)-2-hydroxy-2-((S)-1,2,3,4-tetrahydroisoquinolin-3-yl)ethyl)benzamide hydrochloride]: 19 nM, 0.3 nM and 0.3 nM.

In the case of `CC(=O)N1CCC(Nc2cc(C(=O)NC[C@@H](O)[C@@H]3Cc4ccccc4CN3)ncn2)CC1` [Example 51, 6-((1-Acetylpiperidin-4-yl)amino)-N—((R)-2-hydroxy-2-((S)-1,2,3,4-tetrahydroisoquinolin-3-yl)ethyl)pyrimidine-4-carboxamide dichloride], the IC50 worked out at 61 nM in test [1] and 15 nM in test [2] (setting [3]).

Turning to `CCOc1cc(C(=O)N2C3CCCC2COC3)ccc1C(=O)NC[C@@H](O)[C@@H]1Cc2ccccc2CN1` [Example 55, 4-(3-Oxa-9-azabicyclo[3.3.1]nonane-9-carbonyl)-2-ethoxy-N—((R)-2-hydroxy-2-((S)-1,2,3,4-tetrahydroisoquinolin-3-yl)ethyl)benzamide], the half-maximal inhibitory concentration (IC50) turned out to be 16 nM in test [1], 0.4 nM in test [2] (setting [3]) and 0.2 nM in test [2] (setting [4]). For `CCOc1cc(C(=O)N2C3CCC2COC3)c(F)cc1C(=O)NC[C@@H](O)[C@@H]1Cc2ccccc2CN1` [Example 69], the IC50 is 1300 nM in test [1] and 3 nM in test [2] (setting [3]). On to `CCOc1cc(CC(=O)N2C3CCC2COC3)ccc1C(=O)NC[C@@H](O)[C@@H]1Cc2ccccc2CN1` [Example 74], for which the IC50 in test [1] was determined as 338 nM; in test [2] (setting [3]) it was 5 nM. In the case of `CC(NC(=O)c1ccc(C(=O)N2CCOCC2)cc1)[C@@H](O)[C@@H]1Cc2ccccc2CN1` (stereo partly drawn) [Example 109, N-((1R)-1-Hydroxy-1-((S)-1,2,3,4-tetrahydroisoquinolin-3-yl)propan-2-yl)-4-(morpholine-4-carbonyl)benzamide hydrochloride], 688 nM corresponded to half-maximal inhibition in test [1] (IC50).

On to `CC(NC(=O)c1ccc(C(=O)N2CCOCC2)cc1)[C@H](O)[C@@H]1Cc2ccccc2CN1` (stereo partly drawn) [Example 110, N-((1S)-1-Hydroxy-1-((S)-1,2,3,4-tetrahydroisoquinolin-3-yl)propan-2-yl)-4-(morpholine-4-carbonyl)benzamide hydrochloride], for which inhibition in test [1] was half-maximal at 1490 nM (IC50). In the case of `Nc1ccc(C(=O)NC[C@@H](O)[C@@H]2Cc3ccccc3CN2)cn1` [Example 111, 6-Amino-N-((R)-2-hydroxy-2-((S)-1,2,3,4-tetrahydroisoquinolin-3-yl)ethyl)nicotinamide dihydrochloride], the midpoint of inhibition in test [1], the IC50, lay at 4670 nM. `O=C(NC[C@@H](O)[C@@H]1Cc2ccccc2CN1)c1ccc2[nH]ncc2c1` [Example 112, N-((R)-2-Hydroxy-2-((S)-1,2,3,4-tetrahydroisoquinolin-3-yl)ethyl)-1H-indazole-5-carboxamide dihydrochloride] showed an IC50 in test [1] of 2310 nM. On to `O=C(NC[C@@H](O)[C@@H]1Cc2ccccc2CN1)c1ccc2[nH]nnc2c1` [Example 114, N-((R)-2-Hydroxy-2-((S)-1,2,3,4-tetrahydroisoquinolin-3-yl)ethyl)-1H-benzo[d][1,2,3]triazole-5-carboxamide dihydrochloride], for which the IC50 in test [1] stood at 5490 nM. For `O=C(NC[C@@H](O)[C@@H]1Cc2ccccc2CN1)c1cc(Cl)nc(OC2COC2)c1` [Example 115, 2-Chloro-N-((R)-2-hydroxy-2-((S)-1,2,3,4-tetrahydroisoquinolin-3-yl)ethyl)-6-(oxetan-3-yloxy)isonicotinamide dihydrochloride], in test [1], the midpoint of inhibition, the IC50, lay at 2830 nM. In the case of `CC(=O)N1CCC(Oc2cc(C(=O)NC[C@@H](O)[C@@H]3Cc4ccccc4CN3)cnn2)CC1` [Example 116, 6-((1-Acetylpiperidin-4-yl)oxy)-N-((R)-2-hydroxy-2-((S)-1,2,3,4-tetrahydroisoquinolin-3-yl)ethyl)pyridazine-4-carboxamide dihydrochloride], in test [1], the IC50 stood at 1110 nM. The same measure, in the same setting: in the case of `O=C(NC[C@@H](O)[C@@H]1Cc2ccccc2CN1)c1cccc2c1ncn2C1CCOCC1` [Example 117, N-((R)-2-Hydroxy-2-((S)-1,2,3,4-tetrahydroisoquinolin-3-yl)ethyl)-1-(tetrahydro-2H-pyran-4-yl)-1H-benzo[d]imidazole-4-carboxamide dihydrochloride] it was 487 nM; in that of `COC(=O)N1CCC(Oc2cncc(C(=O)NC[C@@H](O)[C@@H]3Cc4ccccc4CN3)c2)CC1` [Example 118, Methyl 4-((5-(((R)-2-hydroxy-2-((S)-1,2,3,4-tetrahydroisoquinolin-3-yl)ethyl)carbamoyl)pyridin-3-yl)oxy)piperidine-1-carboxylate dihydrochloride], 502 nM; in that of `O=C(NC[C@@H](O)[C@@H]1Cc2ccccc2CN1)c1ccnc(OC2CCN(CC(F)(F)F)CC2)c1` [Example 124, N—((R)-2-Hydroxy-2-((S)-1,2,3,4-tetrahydroisoquinolin-3-yl)ethyl)-2-((1-(2,2,2-trifluoroethyl)piperidin-4-yl)oxy)isonicotinamide], 70 nM. In test [1], `CCOc1cc(C(=O)N2C3CCC2COC3)ccc1C(=O)NC[C@@H](O)[C@@H]1Cc2cc(C)ccc2CN1` [Example 125, 4-(3-Oxa-8-azabicyclo[3.2.1]octane-8-carbonyl)-2-ethoxy-N—((R)-2-hydroxy-2-((S)-6-methyl-1,2,3,4-tetrahydroisoquinolin-3-yl)ethyl)benzamide hydrochloride] came in with an IC50 of 232 nM.
